Measured values from ChEMBL document CHEMBL1909046, “DrugMatrix in vitro pharmacology data”.

How the values were obtained:
[1] = biological target: T1, Cytochrome P450 2A6 (Homo sapiens, UniProt P11509); conditions: bti-tn-5b1-4; further: in other assays of this panel Not Active means under 50% inhibition at 10 µM
T1 sequence (P11509 whole entry): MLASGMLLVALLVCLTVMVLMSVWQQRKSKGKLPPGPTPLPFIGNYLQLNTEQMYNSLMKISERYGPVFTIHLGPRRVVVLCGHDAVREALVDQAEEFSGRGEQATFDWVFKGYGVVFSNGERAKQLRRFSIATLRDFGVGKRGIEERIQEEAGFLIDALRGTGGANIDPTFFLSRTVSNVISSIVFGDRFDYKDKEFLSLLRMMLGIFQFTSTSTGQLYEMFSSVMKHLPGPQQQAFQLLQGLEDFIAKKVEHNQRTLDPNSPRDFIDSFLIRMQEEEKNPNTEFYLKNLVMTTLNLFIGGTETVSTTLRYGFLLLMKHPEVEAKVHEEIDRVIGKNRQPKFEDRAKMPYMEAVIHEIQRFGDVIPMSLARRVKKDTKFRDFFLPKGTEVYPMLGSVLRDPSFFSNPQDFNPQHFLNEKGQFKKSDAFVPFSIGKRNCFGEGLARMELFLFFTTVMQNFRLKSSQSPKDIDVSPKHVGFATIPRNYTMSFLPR

[2] = DRUGMATRIX: GABAA, Chloride Channel, TBOB radioligand binding (ligand: [3H] TBOB); type: cell membranes, Rattus norvegicus, Wistar, Cerebral cortex, Membrane; conditions: Not Active = under 50% inhibition at 10 µM
[3] = DRUGMATRIX: Tumor Necrosis Factor (TNF), Non-Selective radioligand binding (ligand: [125I] TNF-alpha); type: cell membranes, Membrane; conditions: u-937; Not Active = under 50% inhibition at 10 µM
[4] = biological target: Mitogen-activated protein kinase 14 (Homo sapiens, UniProt Q16539); parameters: species or system Escherichia coli;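 further: inhibition of p38alpha enzyme activity in a biochemical kinase assay, with myelin basic protein serving as substrate; in other assays of this panel Not Active means under 50% inhibition at 10 µM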
[5] = biological target: Cannabinoid receptor 1 (Homo sapiens, UniProt P21554); type: cell membranes, Membrane; conditions: chem-1; further: in other assays of this panel Not Active means under 50% inhibition at 10 µM
[6] = biological target: Acetylcholinesterase (Homo sapiens, UniProt P22303); assay: DRUGMATRIX: Acetylcholinesterase enzyme inhibition (substrate: acetylthiocholine); type: cell-based, HEK293; conditions: hek293; Not Active = under 50% inhibition at 10 µM
[7] = biological target: T2, C-C chemokine receptor type 4 (Homo sapiens, UniProt P51679); type: cell membranes, Chem-1, Membrane; conditions: chem-1; further: in other assays of this panel Not Active means under 50% inhibition at 10 µM
T2 sequence (P51679 whole entry): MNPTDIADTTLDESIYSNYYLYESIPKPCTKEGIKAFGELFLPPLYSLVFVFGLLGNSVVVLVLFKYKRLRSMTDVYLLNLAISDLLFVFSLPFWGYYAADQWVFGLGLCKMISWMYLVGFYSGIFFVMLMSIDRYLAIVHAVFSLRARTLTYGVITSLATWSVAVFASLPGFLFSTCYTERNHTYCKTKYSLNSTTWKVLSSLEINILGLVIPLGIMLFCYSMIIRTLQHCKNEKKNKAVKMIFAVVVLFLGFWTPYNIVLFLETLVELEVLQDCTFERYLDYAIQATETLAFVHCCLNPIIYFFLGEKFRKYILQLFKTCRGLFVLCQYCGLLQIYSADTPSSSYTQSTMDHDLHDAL

[8] = biological target: Adenosine receptor A2a (Homo sapiens, UniProt P29274); assay: DRUGMATRIX: Adenosine A2A radioligand binding (ligand: […]); type: cell membranes, Membrane; conditions: hek293; Not Active = under 50% inhibition at 10 µM
Adenosine receptor A2a, sequence (P29274 whole entry): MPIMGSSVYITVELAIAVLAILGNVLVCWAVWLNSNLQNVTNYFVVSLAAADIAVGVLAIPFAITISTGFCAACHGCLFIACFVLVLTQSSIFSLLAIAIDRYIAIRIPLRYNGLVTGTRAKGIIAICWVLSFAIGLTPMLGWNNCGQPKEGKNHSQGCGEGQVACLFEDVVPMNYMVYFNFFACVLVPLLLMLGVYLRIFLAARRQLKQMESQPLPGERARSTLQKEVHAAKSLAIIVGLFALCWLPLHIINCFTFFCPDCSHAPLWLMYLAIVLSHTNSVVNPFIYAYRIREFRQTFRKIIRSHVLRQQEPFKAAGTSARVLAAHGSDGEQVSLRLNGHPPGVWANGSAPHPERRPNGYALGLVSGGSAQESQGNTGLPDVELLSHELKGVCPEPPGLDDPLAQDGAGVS

Acetylcholinesterase, sequence (P22303 whole entry): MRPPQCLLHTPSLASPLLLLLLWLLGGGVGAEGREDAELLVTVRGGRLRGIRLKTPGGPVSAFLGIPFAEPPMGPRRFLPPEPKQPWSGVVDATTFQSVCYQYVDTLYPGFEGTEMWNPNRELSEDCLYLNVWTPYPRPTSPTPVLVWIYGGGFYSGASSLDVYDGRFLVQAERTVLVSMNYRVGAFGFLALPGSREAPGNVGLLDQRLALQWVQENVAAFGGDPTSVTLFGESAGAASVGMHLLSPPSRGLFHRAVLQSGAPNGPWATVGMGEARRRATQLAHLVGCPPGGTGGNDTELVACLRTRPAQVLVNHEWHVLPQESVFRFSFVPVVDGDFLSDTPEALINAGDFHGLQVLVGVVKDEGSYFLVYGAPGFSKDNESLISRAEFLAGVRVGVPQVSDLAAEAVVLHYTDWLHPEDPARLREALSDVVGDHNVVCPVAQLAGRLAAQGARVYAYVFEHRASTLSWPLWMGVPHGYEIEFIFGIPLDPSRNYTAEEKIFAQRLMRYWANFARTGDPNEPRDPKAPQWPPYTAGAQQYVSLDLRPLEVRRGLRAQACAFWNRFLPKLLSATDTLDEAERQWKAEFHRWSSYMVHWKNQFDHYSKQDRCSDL
Cannabinoid receptor 1, sequence (P21554 whole entry): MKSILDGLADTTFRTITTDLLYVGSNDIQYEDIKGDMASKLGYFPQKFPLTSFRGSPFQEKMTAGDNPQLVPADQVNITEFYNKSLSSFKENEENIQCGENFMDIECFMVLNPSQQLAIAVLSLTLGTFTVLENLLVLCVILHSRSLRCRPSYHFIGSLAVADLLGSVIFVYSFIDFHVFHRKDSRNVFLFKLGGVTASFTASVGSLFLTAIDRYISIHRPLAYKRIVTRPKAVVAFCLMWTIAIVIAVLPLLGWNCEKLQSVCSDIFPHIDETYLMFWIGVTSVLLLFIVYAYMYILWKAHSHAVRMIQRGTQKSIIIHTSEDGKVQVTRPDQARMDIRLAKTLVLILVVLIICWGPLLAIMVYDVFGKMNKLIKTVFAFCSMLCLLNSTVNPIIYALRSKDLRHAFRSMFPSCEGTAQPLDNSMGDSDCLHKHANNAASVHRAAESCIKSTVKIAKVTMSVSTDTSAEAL
Mitogen-activated protein kinase 14, sequence (Q16539 whole entry): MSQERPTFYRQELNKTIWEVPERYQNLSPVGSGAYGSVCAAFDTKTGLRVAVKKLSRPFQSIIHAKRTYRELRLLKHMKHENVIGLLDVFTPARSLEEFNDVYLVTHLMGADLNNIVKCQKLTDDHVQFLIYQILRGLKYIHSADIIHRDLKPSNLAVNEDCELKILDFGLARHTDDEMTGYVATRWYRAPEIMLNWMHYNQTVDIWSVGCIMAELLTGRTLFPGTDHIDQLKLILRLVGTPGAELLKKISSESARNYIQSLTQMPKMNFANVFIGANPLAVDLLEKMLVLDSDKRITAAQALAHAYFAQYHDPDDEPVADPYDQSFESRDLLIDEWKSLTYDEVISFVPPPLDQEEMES

N[C@@H]1[C@H]2CN(c3nc4c(cc3F)c(=O)c(C(=O)O)cn4-c3ccc(F)cc3F)C[C@@H]12 [TROVAFLOXACIN]
Not Active: IC50 [1] | Ki [1] | IC50 [2] | Ki [2] | IC50 [3] | Ki [3] | IC50 [4] | IC50 [5] | IC50 [6] | IC50 [7] | IC50 [8]

CC1(C)O[C@@H]2C[C@H]3[C@@H]4CCC5=CC(=O)C=C[C@]5(C)[C@@]4(F)[C@@H](O)C[C@]3(C)[C@]2(C(=O)CO)O1 [TRIAMCINOLONE ACETONIDE]
Not Active: IC50 [1] | Ki [1] | IC50 [2] | Ki [2] | IC50 [3] | Ki [3] | IC50 [4] | IC50 [5] | IC50 [6] | IC50 [7] | IC50 [8]

NC[C@H]1CC[C@H](C(=O)O)CC1 [TRANEXAMIC ACID]
Not Active: IC50 [1] | Ki [1] | IC50 [2] | Ki [2] | IC50 [3] | Ki [3] | IC50 [4] | IC50 [5] | IC50 [6] | IC50 [7] | IC50 [8]

COc1c(C)c2c(c(O)c1C/C=C(\C)CCC(=O)O)C(=O)OC2 [MYCOPHENOLIC ACID]
Not Active: IC50 [1] | Ki [1] | IC50 [2] | Ki [2] | IC50 [3] | Ki [3] | IC50 [4] | IC50 [5] | IC50 [6] | IC50 [7] | IC50 [8]

N[C@@H](Cc1ccc(N(CCCl)CCCl)cc1)C(=O)O
Not Active: IC50 [1] | Ki [1] | IC50 [2] | Ki [2] | IC50 [3] | Ki [3] | IC50 [4] | IC50 [5] | IC50 [6] | IC50 [7] | IC50 [8]

CO[C@H]1/C=C/O[C@@]2(C)Oc3c(C)c(O)c4c(O)c(c(/C=N/N5CCN(C)CC5)c(O)c4c3C2=O)NC(=O)/C(C)=C\C=C\[C@H](C)[C@H](O)[C@@H](C)[C@@H](O)[C@@H](C)[C@H](OC(C)=O)[C@@H]1C [RIFAMPIN]
Not Active: IC50 [1] | Ki [1] | IC50 [2] | Ki [2] | IC50 [3] | Ki [3] | IC50 [4] | IC50 [5] | IC50 [6] | IC50 [7] | IC50 [8]

O=NN(CCCl)C(=O)NC1CCCCC1 [LOMUSTINE]
Not Active: IC50 [1] | Ki [1] | IC50 [2] | Ki [2] | IC50 [3] | Ki [3] | IC50 [4] | IC50 [5] | IC50 [6] | IC50 [7] | IC50 [8]

CSc1ccc(/C=C2/C(C)=C(CC(=O)O)c3cc(F)ccc32)cc1 [SULINDAC SULFIDE]
Not Active: IC50 [1] | Ki [1] | IC50 [2] | Ki [2] | IC50 [3] | Ki [3] | IC50 [4] | IC50 [5] | IC50 [6] | IC50 [7] | IC50 [8]

SODIUM NITROPRUSSIDE
Not Active: IC50 [1] | Ki [1] | IC50 [2] | Ki [2] | IC50 [3] | Ki [3] | IC50 [4] | Ki [4] | IC50 [5] | Ki [5] | IC50 [6] | Ki [6] | IC50 [7] | Ki [7] | IC50 [8] | Ki [8]

Cc1noc(NS(=O)(=O)c2ccc(N)cc2)c1C [SULFISOXAZOLE]
Not Active: IC50 [1] | Ki [1] | IC50 [2] | Ki [2] | IC50 [3] | Ki [3] | IC50 [4] | IC50 [5] | IC50 [6] | IC50 [7] | IC50 [8]

Cc1cccc(N(C)C(=S)Oc2ccc3ccccc3c2)c1 [TOLNAFTATE]
Not Active: IC50 [1] | Ki [1] | IC50 [2] | Ki [2] | IC50 [3] | Ki [3] | IC50 [4] | IC50 [5] | IC50 [6] | IC50 [7] | IC50 [8]

Cc1oncc1C(=O)Nc1ccc(C(F)(F)F)cc1 [LEFLUNOMIDE]
Not Active: IC50 [1] | Ki [1] | IC50 [2] | Ki [2] | IC50 [3] | Ki [3] | IC50 [4] | IC50 [5] | IC50 [6] | IC50 [7] | IC50 [8]

CC[C@@H](CO)NC(=O)[C@@H]1C=C2c3cccc4[nH]cc(c34)C[C@H]2N(C)C1 [METHYLERGONOVINE]
Not Active: IC50 [1] | Ki [1] | IC50 [2] | Ki [2] | IC50 [3] | Ki [3] | IC50 [4] | IC50 [5] | IC50 [6] | IC50 [7] | IC50 [8]

CCOC(=O)N1CCC(=C2c3ccc(Cl)cc3CCc3cccnc32)CC1 [LORATADINE]
Not Active: IC50 [1] | Ki [1] | IC50 [2] | Ki [2] | IC50 [3] | Ki [3] | IC50 [4] | IC50 [5] | IC50 [6] | IC50 [7] | IC50 [8]

CC(C)(C)NC(=O)[C@@H]1C[C@@H]2CCCC[C@@H]2CN1C[C@@H](O)[C@H](Cc1ccccc1)NC(=O)[C@H](CC(N)=O)NC(=O)c1ccc2ccccc2n1
Not Active: IC50 [1] | Ki [1] | IC50 [2] | Ki [2] | IC50 [3] | Ki [3] | IC50 [4] | IC50 [5] | IC50 [6] | IC50 [7] | IC50 [8]
